Molecular target: T1, human p38 kinase alpha (Homo sapiens, UniProt Q16539)
T1 construct: made in house; host or cells: E. coli DH10B
Test: p38 alpha kinase assay (PHAS-I / 32P-ATP format or EGFRP / 33P-ATP format)
Format: biochemical
Conditions: inhibition of activated human p38 kinase alpha; the text does not say which of the two in vitro formats was used
Experimental: The ability of compounds to inhibit human p38 kinase alpha was evaluated using two in vitro assay methods. In the first method, activated human p38 kinase alpha phosphorylates a biotinylated substrate, PHAS-I (phosphorylated heat and acid stable protein-insulin inducible), in the presence of gamma ^32P-ATP (^32P-ATP). PHAS-I was biotinylated prior to the assay and provides a means of capturing the substrate, which is phosphorylated during the assay. p38 Kinase was activated by MKK6. Compounds were tested in 10 fold serial dilutions over the range of 100 μM to 0.001 μM using 1% DMSO. Each concentration of inhibitor was tested in triplicate.
All reactions were carried out in 96 well polypropylene plates. Each reaction well contained 25 mM HEPES pH 7.5, 10 mM magnesium acetate and 50 μM unlabeled ATP. […] Activated human p38 kinase alpha was used at 1 μg per 50 μl reaction volume representing a final concentration of 0.3 μM. […]
Following incubation, 20 μl of reaction mixture was transferred to a high capacity streptavidin coated filter plate (SAM-streptavidin-matrix, Promega) prewetted with phosphate buffered saline. […] The plates were sealed and counted.
Compounds were tested in 10 fold serial dilutions over the range of 100 μM to 0.001 μM in 1% DMSO. […] 150 μl of Microscint 40 was then added to each well of the Microlite plate, and the plate was sealed, mixed, and counted.

T1 sequence (Q16539 whole entry): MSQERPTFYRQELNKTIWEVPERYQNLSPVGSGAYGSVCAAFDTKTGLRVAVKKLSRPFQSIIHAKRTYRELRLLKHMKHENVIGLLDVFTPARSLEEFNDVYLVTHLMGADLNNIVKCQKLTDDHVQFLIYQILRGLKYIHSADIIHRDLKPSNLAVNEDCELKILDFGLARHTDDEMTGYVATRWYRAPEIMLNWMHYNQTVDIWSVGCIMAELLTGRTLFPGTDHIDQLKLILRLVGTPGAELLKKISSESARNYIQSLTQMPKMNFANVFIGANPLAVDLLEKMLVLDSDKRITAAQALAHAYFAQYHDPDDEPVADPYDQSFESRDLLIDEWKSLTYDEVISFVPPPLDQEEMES

| Compound | IC50 [µM] |
| --- | --- |
| Cc1ccc(C(N)=O)cc1-n1c(C)cc(OCc2ccc(F)cc2F)c(Br)c1=O (single isomer, unassigned) [Example 736, (+)-3-[3-bromo-4-[(2,4-difluorobenzyl)oxy]-6-methyl-2-oxopyridin-1(2H)-yl]-4-methylbenzamide] | < 1 |
| Cc1c(/C=N/O)c(OCc2ccc(F)cc2F)c(Br)c(=O)n1-c1c(F)cccc1F [Example 565, 5-bromo-4-[(2,4-difluorobenzyl)oxy]-1-(2,6-difluorophenyl)-2-methyl-6-oxo-1,6-dihydropyridine-3-carbaldehyde Oxime] | 25 to 100 |

Tested on: not given
Test: not given
Conditions: not given

| Compound | melting point [°C] |
| --- | --- |
| CN(C)Cc1cccc(Cn2ccc(OCc3ccc(F)cc3F)c(Br)c2=O)c1 [Example 76, 3-bromo-4-(2,4-difluorobenzyloxy)-1-[(3-dimethylaminomethyl)benzyl]-1H-pyridin-2-one] | 103 to 107 |
| Cl.O=c1c(Br)c(OCc2ccccc2)ccn1CC1CCNCC1 [Example 25, 4-(benzyloxy)-3-bromo-1-(piperidin-4-ylmethyl)pyridin-2(1H)-one Hydrochloride] | 207.9 |
| NC(=O)c1ccc(Cn2ccc(OCc3ccc(F)cc3F)c(Br)c2=O)cc1 [Example 103, 4-[3-bromo-4-(2,4-difluorobenzyloxy)-2-oxo-2H-pyridin-1-ylmethyl]benzamide] | 235 to 238 |
| CS(=O)(=O)c1ccc(Cn2ccc(OCc3ccc(F)cc3F)c(Cl)c2=O)cc1 [Example 82, 3-chloro-4-(2,4-difluorobenzyloxy)-1-[(4-methanesulfonyl)benzyl]-1H-pyridin-2-one] | 223 to 225 |
| CNCc1cccc(Cn2ccc(OCc3ccc(F)cc3F)c(Br)c2=O)c1 [Example 77, 3-Bromo-4-(2,4-difluorobenzyloxy)-1-[(3-methylaminomethyl)benzyl]-1H-pyridin-2-one] | 107 to 111 |
